Data reported in patent US20240261268A1, “METHODS OF SLOWING AN INCREASE IN BRAIN VENTRICULAR VOLUME” (VANDA PHARMACEUTICALS INC., priority 2022, published 2024).

Assays:
[1] = test system: adult subjects with relapsing MS; assay: Phase III study ponesimod 20 mg vs teriflunomide 14 mg: treatment-emergent adverse events (Safety Set)
Protocol: A prospective, multicenter, randomized, double-blind, active controlled, parallel-group, phase III, superiority study was conducted.
The treatment period consisted of an up-titration period (from Day 1 to 14) and a maintenance period (Day 15 until EOT).
To reduce the first-dose effect of ponesimod, an up-titration scheme was implemented from Day 1 to Day 14: • Days 1 and 2; 2 mg. • Days 3 and 4; 3 mg. • Days 5 and 6; 4 mg. • Day 7; 5 mg. • Day 8; 6 mg. • Day 9; 7 mg. • Day 10; 8 mg. • Day 11; 9 mg. • Days 12, 13, and 14; 10 mg. • Day 15 until EOT; 20 mg.
The Safety Set (SAF) included all randomized subjects who received at least one dose of study treatment. Subjects were analyzed based on actual treatment taken, not randomized treatment.

[2] = test system: adult subjects with relapsing MS; assay: Phase III study: premature treatment discontinuation and deaths; type: in vivo
Protocol: A total of 1468 subjects were screened. Of those, 1133 subjects were randomized (567 to ponesimod 20 mg and 566 to teriflunomide 14 mg) across 162 sites in 28 countries, and 1131 subjects received at least one dose of study drug. The disposition of subjects is summarized in Table 1 and a summary of reasons (primary reason) for treatment discontinuation are shown in Table 2. Overall treatment and study discontinuation were balanced across both treatment arms. A total of 6.5% and 2.5% of the subjects discontinued due to AEs or tolerability related reasons in ponesimod 20 mg and teriflunomide 14 mg, respectively, while 1.9% and 4.3% discontinued due to efficacy related reasons. There were 2 deaths reported during the study—both on teriflunomide 14 mg.

[3] = test system: adult subjects with relapsing MS; assay: MRI-based scaled brain ventricular volume (lateral + 3rd ventricle / ICV); type: in vivo, human
Text: Efficacy variable/timepoint: The endpoint was increase in ventricular volume up to the end of study (EOS). All available data up to EOS, regardless of treatment discontinuation was included (ITT approach).
Ventricular Volume (VV) data were obtained from MRI images from patients that participated in the OPTIMUM study. Data were obtained from those patients who had MRI imagines at baseline week 60 and week 108. One pre-requisite was to select only those patients who had all images completed.
Ventricular volume was estimated from MRI images collected at baseline (BL), week 60 and week 108 for 428 subjects treated with ponesimod and 427 with teriflunomide. Lesions were identified using T2-weighted and Proton Density (PD) MRIs. Ventricles were segmented using lesion-filled T1 images using with the longitudinal stream in FreeSurfer 7. For each subject, scaled ventricular volume (V) was computed as the sum of lateral and 3rd ventricle volumes divided by the intracranial volume (ICV) and expressed as a percentage. Average V (V) and average change in V (ΔV) from baseline at weeks 60 and 108 were compared across treatment arms. Ventricular volumes were correlated with Multiple Sclerosis Functional Composite (MSFC), Paced Auditory Serial Addition Test (PASAT), Average Timed 25 Foot Walk (T25FW), Average 9-Hole Peg Test (9-HPT), Single Digit Modality Test (SDMT), FSIQ-RMS and Expanded Disability Score (EDSS).

[4] = test system: adult subjects with relapsing MS; assay: 12-lead ECG heart rate and first-dose monitoring on Day 1; type: in vivo, human
Protocol: The incidence of treatment-emergent heart rate and rhythm (including hypotension) AESIs on Day 1 was higher in the ponesimod 20 mg arm (2.1%) than in the teriflunomide 14 mg arm (0.4%). However, the overall incidence of first dose AESI on Day 1 was low (2.1%) in ponesimod. None of these events were serious nor led to permanent discontinuation of study treatment. Discharge criteria at 4 hours post-dose were met for ca. 99% of subjects. […] ECG HR effect: nadir at 2 hours post-dose (siponimod—3-4 hours, fingolimod—around by 6 hours). Low incidence of low HR outliers (post-dose HR≤40 bpm), all 3 of them with a pre-treatment HR of <55 bpm, which is a known risk factor for post-dose bradycardia with SIP receptor modulators.
The mean heart rate reduction compared to pre-dose reached a maximum for ponesimod 20 mg at 2-hours post dose, −8.7 bpm compared to −1.7 bpm for teriflunomide 14 mg (FIG. 2).

[5] = Day 1, ponesimod N=565, teriflunomide N=566, Safety Set
[6] = ponesimod 20 mg N=565, teriflunomide 14 mg N=566, Safety Set
[7] = ponesimod 20 mg, teriflunomide 14 mg
[8] = treatment-emergent, ponesimod 20 mg N=565, teriflunomide 14 mg N=566, Safety Set
[9] = week 60 and week 108 vs baseline, ponesimod n=428, teriflunomide n=427

CCC/N=C1\S/C(=C\c2ccc(OC[C@H](O)CO)c(Cl)c2)C(=O)N1c1ccccc1C [ponesimod, (R)-5-[3-chloro-4-(2,3-dihydroxy-propoxy)-benz[Z]ylidene]-2-([Z]-propylimino)-3-o-tolyl-thiazolidin-4-one]
Incidence of treatment-emergent heart rate and rhythm (including hypotension) AESIs on Day 1 ([1]; Day 1, ponesimod 20 mg arm, teriflunomide 14 mg arm): 2.1% | AESI effect on heart rate and rhythm (including hypotension) on Day 1: Subjects with at least one AE [1, 5]: 12(2.1) n (%) | AESI heart rate and rhythm on Day 1, PT: Atrioventricular block first degree [1, 5]: 3(0.5) n (%) | AESI heart rate and rhythm on Day 1, PT: Bradycardia [1, 5]: 4(0.7) n (%) | AESI heart rate and rhythm on Day 1, PT: Bundle branch block left [1, 5]: 1(0.2) n (%) | AESI heart rate and rhythm on Day 1, PT: Bundle branch block right [1, 5]: 1(0.2) n (%) | AESI heart rate and rhythm on Day 1, PT: Defect conduction intraventricular [1, 5]: 2(0.4) n (%) | AESI heart rate and rhythm on Day 1, PT: Electrocardiogram QT prolonged [1, 5]: 0 n (%) | AESI heart rate and rhythm on Day 1, PT: Presyncope [1, 5]: 0 n (%) | AESI heart rate and rhythm on Day 1, PT: Sinus arrhythmia [1, 5]: 1(0.2) n (%) | AESI heart rate and rhythm on Day 1, PT: Sinus bradycardia [1, 5]: 1(0.2) n (%) | Treatment-emergent AESI: Infection ([1]; only if serious or severe, ponesimod 20 mg N=565, teriflunomide 14 mg N=566, Safety Set): 9(1.6) n (%) | TEAEs leading to premature discontinuation of study drug: Subjects with at least one AE [1, 6]: 49(8.7) n (%) | TEAEs leading to premature discontinuation, SOC: Blood and lymphatic system disorders [1, 6]: 3(0.5) n (%) | TEAEs leading to premature discontinuation, SOC: Cardiac disorders [1, 6]: 1(0.2) n (%) | TEAEs leading to premature discontinuation, SOC: Eye disorders [1, 6]: 5(0.9) n (%) | TEAEs leading to premature discontinuation, SOC: Gastrointestinal disorders [1, 6]: 4(0.7) n (%) | TEAEs leading to premature discontinuation, SOC: General disorders and administration site conditions [1, 6]: 3(0.5) n (%) | TEAEs leading to premature discontinuation, SOC: Hepatobiliary disorders [1, 6]: 3(0.5) n (%) | TEAEs leading to premature discontinuation, SOC: Investigations [1, 6]: 12(2.1) n (%) | TEAEs leading to premature discontinuation, SOC: Musculoskeletal and connective tissue disorders [1, 6]: 1(0.2) n (%) | TEAEs leading to premature discontinuation, SOC: Neoplasms benign, malignant and unspecified (incl cysts and polyps) [1, 6]: 1(0.2) n (%) | TEAEs leading to premature discontinuation, SOC: Nervous system disorders [1, 6]: 2(0.4) n (%) | TEAEs leading to premature discontinuation, SOC: Pregnancy, puerperium and perinatal conditions [1, 6]: 3(0.5) n (%) | TEAEs leading to premature discontinuation, SOC: Psychiatric disorders [1, 6]: 1(0.2) n (%) | TEAEs leading to premature discontinuation, SOC: Reproductive system and breast disorders [1, 6]: 0 n (%) | TEAEs leading to premature discontinuation, SOC: Respiratory, thoracic and mediastinal disorders [1, 6]: 7(1.2) n (%) | TEAEs leading to premature discontinuation, SOC: Skin and subcutaneous tissue disorders [1, 6]: 1(0.2) n (%) | TEAEs leading to premature discontinuation, SOC: Social circumstances [1, 6]: 2(0.4) n (%) | TEAEs leading to premature discontinuation, SOC: Surgical and medical procedures [1, 6]: 0 n (%) | TEAEs leading to premature discontinuation, SOC: Vascular disorders [1, 6]: 3(0.5) n (%) | Treatment-emergent AESI: Effect on heart rate and rhythm (including hypotension) [1, 6]: 29(5.1) n (%) | Treatment-emergent AESI: Hepatobiliary disorders/Liver enzyme abnormality [1, 6]: 145(25.7) n (%) | Treatment-emergent AESI: Herpetic infection [1, 6]: 27(4.8) n (%) | Treatment-emergent AESI: Hypertension [1, 6]: 57(10.1) n (%) | Treatment-emergent AESI: Macular edema [1, 6]: 6(1.1) n (%) | Treatment-emergent AESI: Non-skin malignancy [1, 6]: 1(0.2) n (%) | Treatment-emergent AESI: Pulmonary events [1, 6]: 45(8.0) n (%) | Treatment-emergent AESI: Seizure [1, 6]: 8(1.4) n (%) | Treatment-emergent AESI: Skin malignancy [1, 6]: 5(0.9) n (%) | AESI category hepatobiliary disorders/liver enzyme abnormality [1, 7]: 25.7% | AESI category hypertension [1, 7]: 10.1% | AESI category pulmonary events [1, 7]: 8.0% | Proportion of subjects who experienced at least one SAE [1, 7]: 8.7% | Proportion of subjects who experienced at least one TEAE [1, 7]: 88.8% | TEAE: ALT increased [1, 7]: 19.5% | TEAE: headache [1, 7]: 11.5% | TEAE: nasopharyngitis [1, 7]: 19.3% | TEAE: upper respiratory tract infection [1, 7]: 10.6% | TEAEs leading to premature treatment discontinuation [1, 7]: 8.7% | Subjects with at least one AE [1, 8]: 502(88.8) n (%) | Subjects with at least one AE leading to study drug discontinuation [1, 8]: 49(8.7) n (%) | Subjects with at least one Drug-Related AE [1, 8]: 278(49.2) n (%) | Subjects with at least one Fatal AE [1, 8]: 0 n (%) | Subjects with at least one Serious AE [1, 8]: 49(8.7) n (%) | Subjects with at least one Severe AE [1, 8]: 39(6.9) n (%) | Premature discontinuation: Death [2, 6]: 0 n | Subjects discontinued due to AEs or tolerability related reasons [2, 7]: 6.5% | Rate of increase in ventricular volume lower compared to teriflunomide ([3]; week 60): 60% | Difference in ventricular volume increase, ponesimod minus teriflunomide (Δ60V^pon−Δ60V^ter) ([3]; week 60, p<0.001): −0.025% | Average change in scaled ventricular volume from baseline (Δ60V), percentage of ICV ([3]; week 60, p<0.001 vs baseline, ponesimod n=428, teriflunomide n=427): 0.026% | Reduction of atrophy compared to teriflunomide (FIGS. 4-6; 3rd and lateral ventricle) [3, 9]: greater | Ventricular enlargement compared to teriflunomide (FIG. 3) [3, 9]: less | Rate of increase in ventricular volume lower compared to teriflunomide ([3]; week 108): 45% | Difference in ventricular volume increase, ponesimod minus teriflunomide (Δ108V^pon−Δ108V^ter) ([3]; week 108, p<0.001): 0.043% | Average change in scaled ventricular volume from baseline (Δ108V), percentage of ICV ([3]; week 108, p<0.001 vs baseline, ponesimod n=428, teriflunomide n=427): 0.067% | Mean heart rate reduction compared to pre-dose (maximum) ([4]; Day 1, 2 hours post dose, 12-lead ECG): −8.7 bpm | 2nd or higher degree AV block ([4]; Day 1, first dose): No 2nd or higher degree AV block was observed | ECG HR effect: time of nadir / maximum mean heart rate reduction post-dose ([4]; Day 1, first dose): 2 h | Subjects meeting discharge criteria at 4 hours post-dose ([4]; Day 1, first dose): ca. 99% | Subjects with asymptomatic post-dose HR≤40 bpm ([4]; Day 1, all had pre-treatment HR <55 bpm): 3 subjects
